Where two headings read alike, the source gives them in different places.
Experiments:
Type in all cases: in vivo
[1] = system: Surinam grass (Brachiaria decumbens); assay: Test B pre/postemergence; conditions: for pest or weed control at 62 g/ha: Urochloa decumbens, 62 g ai/ha
Procedure, shortened: (§1)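 Formulation: non-phytotoxic solvent blend with surfactant. Timing: preemergence on seeds, postemergence at 1- to 4-leaf (2–18 cm). Assessment: visual, 0–100 against controls, after 13–15 days' greenhouse growth.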

[2] = system: barnyardgrass (Echinochloa crus-galli); assay: Test B pre/postemergence; conditions: scale 0 to 100 (0 no effect, 100 complete control); for pest or weed control at 62 g/ha: Echinochloa crus-galli, 62 g ai/ha
Procedure, shortened: as §1

[3] = system: cocklebur (Xanthium strumarium); assay: Test B pre/postemergence; conditions: for pest or weed control at 62 g/ha: Xanthium strumarium, 62 g ai/ha
Procedure, shortened: as §1

corn (Zea mays) = assay: Test B pre/postemergence
Procedure, shortened: as §1

[4] = system: crabgrass (Digitaria sanguinalis); assay: Test B pre/postemergence; conditions: for pest or weed control at 62 g/ha: Digitaria sanguinalis, 62 g ai/ha
Procedure, shortened: as §1

[5] = system: giant foxtail (Setaria faberii); assay: Test B pre/postemergence; conditions: for pest or weed control at 62 g/ha: Setaria faberi, 62 g ai/ha
Procedure, shortened: as §1

[6] = system: lambsquarters (Chenopodium album); assay: Test B pre/postemergence; conditions: for pest or weed control at 62 g/ha: Chenopodium album, 62 g ai/ha
Procedure, shortened: as §1

[7] = system: morningglory (Ipomoea coccinea); assay: Test B pre/postemergence; conditions: for pest or weed control at 62 g/ha: Ipomoea, 62 g ai/ha
Procedure, shortened: as §1

[8] = system: pigweed (Amaranthus retroflexus); assay: Test B pre/postemergence; conditions: for pest or weed control at 62 g/ha: Amaranthus retroflexus, 62 g ai/ha
Procedure, shortened: as §1

[9] = system: velvetleaf (Abutilon theophrasti); assay: Test B pre/postemergence; conditions: for pest or weed control at 62 g/ha: Abutilon theophrasti, 62 g ai/ha
Procedure, shortened: as §1

[10] = system: wheat (Triticum aestivum); assay: Test B pre/postemergence; conditions: scale 0 to 100 (0 no effect, 100 complete control); for plant injury at 62 g/ha: Triticum aestivum, 62 g ai/ha
Procedure, shortened: as §1

[11] = system: blackgrass (Alopecurus myosuroides); assay: Test B postemergence; conditions: scale 0 to 100 (0 no effect, 100 complete control)
Procedure, shortened: as §1

wild oat (Avena fatua) = assay: Test B postemergence; conditions: scale 0 to 100 (0 no effect, 100 complete control)
Procedure, shortened: as §1

[12] = system: barnyardgrass (Echinochloa crus-galli); assay: Test B flooded paddy test; conditions: Echinochloa crus-galli, Flood, scale 0 to 100, read-out: Plant response rating, Barnyardgrass
Procedure, shortened: (§2)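 Visual injury scoring (0 = no effect, 100 = complete control) versus controls made 13 to 15 days after treatment in the greenhouse. Test species were grown in flooded paddy to the 2-leaf stage: rice, barnyardgrass, umbrella sedge, duck salad.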

[13] = system: duck salad (Heteranthera limosa); assay: Test B flooded paddy test; conditions: Heteranthera limosa, Flood, scale 0 to 100, read-out: Plant response rating, Ducksalad
Procedure, shortened: as §2

rice (Oryza sativa) = assay: Test B flooded paddy test; conditions: Oryza sativa, Flood, scale 0 to 100, read-out: Plant response rating, Rice
Procedure, shortened: as §2

[14] = system: umbrella sedge (Cyperus difformis); assay: Test B flooded paddy test; conditions: Cyperus difformis, Flood, scale 0 to 100, read-out: Plant response rating, Sedge, Umbrella
Procedure, shortened: as §2

[15] = Postemergence, 125 g ai/ha, scale 0 to 100 (0 no effect, 100 complete control)
[16] = Preemergence, 125 g ai/ha, scale 0 to 100 (0 no effect, 100 complete control)

Nc1nc(C2CC2)nc(C(=O)[O-])c1Br.[Na+] [Compound 113, 6-amino-5-bromo-2-cyclopropyl-4-pyrimidinecarboxylic acid monosodium salt]
70%: pest or weed control at 62 g/ha ([3]; pre-emergence, Preemergence, scale 0 to 100, 0 no effect, 100 complete control, read-out: Plant response rating, Cocklebur) | pest or weed control at 62 g/ha ([6]; pre-emergence, Preemergence, scale 0 to 100, 0 no effect, 100 complete control, read-out: Plant response rating, Lambsquarters) | pest or weed control at 62 g/ha ([8]; post-emergence, Postemergence, scale 0 to 100 (0 no effect, 100 complete control), read-out: Pigweed plant response rating) | pest or weed control at 62 g/ha ([8]; pre-emergence, Preemergence, scale 0 to 100, 0 no effect, 100 complete control, read-out: Plant response rating, Pigweed)
80%: pest or weed control at 62 g/ha ([6]; post-emergence, Postemergence, scale 0 to 100 (0 no effect, 100 complete control), read-out: Lambsquarters plant response rating) | pest or weed control at 62 g/ha ([9]; pre-emergence, Preemergence, scale 0 to 100, 0 no effect, 100 complete control, read-out: Plant response rating, Velvetleaf)
60%: pest or weed control at 62 g/ha ([9]; post-emergence, Postemergence, scale 0 to 100 (0 no effect, 100 complete control), read-out: Velvetleaf plant response rating)
0%: pest or weed control at 62 g/ha ([2]; pre-emergence, Preemergence, read-out: Plant response rating, Barnyardgrass) | Corn plant response rating (crop injury, 0 = no effect, 100 = complete kill) at 62 g/ha (corn (Zea mays); Zea mays, pre-emergence, Preemergence, 62 g ai/ha, scale 0 to 100, 0 no effect, 100 complete control) | pest or weed control at 62 g/ha ([5]; pre-emergence, Preemergence, scale 0 to 100, 0 no effect, 100 complete control, read-out: Plant response rating, Foxtail, Giant) | pest or weed control at 125 g/ha ([12]; 125 g ai/ha) | pest or weed control at 500 g/ha ([12]; 500 g ai/ha) | pest or weed control at 125 g/ha ([13]; 125 g ai/ha) | pest or weed control at 500 g/ha ([13]; 500 g ai/ha) | plant injury at 125 g/ha (rice (Oryza sativa); 125 g ai/ha) | plant injury at 500 g/ha (rice (Oryza sativa); 500 g ai/ha) | pest or weed control at 125 g/ha ([14]; 125 g ai/ha) | pest or weed control at 500 g/ha ([14]; 500 g ai/ha)
70: Plant response rating, Crabgrass [4, 16]
40: Corn plant response rating (corn (Zea mays); [15]) | Crabgrass plant response rating [4, 15] | Blackgrass plant response rating ([11]; 125 g ai/ha)
50%: pest or weed control at 62 g/ha ([2]; post-emergence, Postemergence, read-out: Barnyardgrass plant response rating) | pest or weed control at 62 g/ha ([7]; pre-emergence, Preemergence, scale 0 to 100, 0 no effect, 100 complete control, read-out: Plant response rating, Morningglory)
90: Cocklebur plant response rating [3, 15] | Lambsquarters plant response rating [6, 15] | Morningglory plant response rating [7, 15] | Pigweed plant response rating [8, 15] | Plant response rating, Pigweed [8, 16] | Plant response rating, Velvetleaf [9, 16]
30%: pest or weed control at 62 g/ha ([1]; post-emergence, Postemergence, scale 0 to 100 (0 no effect, 100 complete control), read-out: Surinam Grass plant response rating) | plant injury at 62 g/ha ([10]; post-emergence, Postemergence, read-out: Wheat plant response rating) | pest or weed control at 62 g/ha ([11]; Alopecurus myosuroides, post-emergence, 62 g ai/ha, read-out: Blackgrass plant response rating)
10%: plant injury at 62 g/ha (corn (Zea mays); Zea mays, post-emergence, Postemergence, 62 g ai/ha, scale 0 to 100 (0 no effect, 100 complete control), read-out: Corn plant response rating) | plant injury at 62 g/ha ([10]; pre-emergence, Preemergence, read-out: Plant response rating, Wheat)
40%: pest or weed control at 62 g/ha ([4]; pre-emergence, Preemergence, scale 0 to 100, 0 no effect, 100 complete control, read-out: Plant response rating, Crabgrass) | pest or weed control at 62 g/ha (wild oat (Avena fatua); Avena fatua, post-emergence, 62 g ai/ha, read-out: Oat, Wild plant response rating)
80: Surinam Grass plant response rating [1, 15] | Barnyardgrass plant response rating ([2]; Postemergence, 125 g ai/ha) | Plant response rating, Cocklebur [3, 16] | Plant response rating, Lambsquarters [6, 16] | Velvetleaf plant response rating [9, 15]
20%: pest or weed control at 62 g/ha ([1]; pre-emergence, Preemergence, scale 0 to 100, 0 no effect, 100 complete control, read-out: Plant response rating, Surinam Grass) | pest or weed control at 62 g/ha ([4]; post-emergence, Postemergence, scale 0 to 100 (0 no effect, 100 complete control), read-out: Crabgrass plant response rating) | pest or weed control at 62 g/ha ([5]; post-emergence, Postemergence, scale 0 to 100 (0 no effect, 100 complete control), read-out: Foxtail, Giant plant response rating)
90%: pest or weed control at 62 g/ha ([3]; post-emergence, Postemergence, scale 0 to 100 (0 no effect, 100 complete control), read-out: Cocklebur plant response rating) | pest or weed control at 62 g/ha ([7]; post-emergence, Postemergence, scale 0 to 100 (0 no effect, 100 complete control), read-out: Morningglory plant response rating)
20: Plant response rating, Barnyardgrass ([2]; Preemergence, 125 g ai/ha) | Plant response rating, Corn (corn (Zea mays); [16])
60: Plant response rating, Surinam Grass [1, 16] | Plant response rating, Morningglory [7, 16] | Plant response rating, Wheat ([10]; Preemergence, 125 g ai/ha)
50: Foxtail, Giant plant response rating [5, 15] | Wheat plant response rating ([10]; Postemergence, 125 g ai/ha) | Oat, Wild plant response rating (wild oat (Avena fatua); 125 g ai/ha)
10: Plant response rating, Foxtail, Giant [5, 16]
